Source: US11717511B2, “Pharmaceutical composition comprising derivative compound of 1,2-naphthoquinone for preventing or treating solid cancer or blood cancer” (HUEN Co., Ltd., priority 2018, dated 2023)

Key:
[1] = tested on: KG1α cells (refractory acute myeloid leukemia); experiment: Cell viability of KG1α cells, WST assay; type: cell-based, human; settings: 0.1-3 μM
Method: Acute leukemia has been identified to have a wide variety of causative factors and a variety of cell lines have also been established. To investigate the availability as a wide-spectrum medicine but not a medicine for a particular type of acute leukemia, KG1α cells were constructed by selecting only cells having a stem cell phenotype from KG1 cells, which are a cell line obtained from a -person with acute myeloid leukemia, and then used.
KG1α cells were incubated in IMDM containing 20% fetal bovine serum (FBS). All the cells were incubated at 37 °C in a 5% CO2 incubator, and subcultured every 2 or 3 days before use in the test.
KG1α cells, which have resistance to idarubicin and cytarabine, which are acute myeloid leukemia medicines, are refractory acute myeloid leukemia (AML) cells. KG1α cells incubated in Example 2-1 were seeded at 1×10^5 cells/well in a 96-well plate, and then for cell stabilization, the cells were incubated at 37 °C in a 5% CO2 incubator for 16 hours or longer. Thereafter, the cells were treated with compounds 99 and 163 (0.1-3 μM) shown in Table 4 out of the compounds synthesized in Example 1, and then incubated for 24 hours. […] After 24 hours, the cells were treated with 10 μl of WST solution and then incubated for 2 hours, and then the absorbance at 450 nm was measured by a multi-scan machine.

[2] = tested on: K562 cells (chronic myeloid leukemia); experiment: Cell viability of K562 cells, WST assay; type: cell-based, human; settings: 0.1-5 μM
Method: K562 cells obtained from a -person with chronic myeloid leukemia were incubated in RPMI medium containing 10% fetal bovine serum (FBS) at 37 °C in a 5% CO2 incubator, and subcultured every 2 days before use in the test.
K562 cells incubated in Example 3-1 were seeded at 1×10^5 cells/well in a 96-well plate, and then for cell stabilization, the cells were incubated at 37 °C in a 5% CO2 incubator for 16 hours or longer. Thereafter, the cells were treated with compounds 99, 163, 191, and 192 (0.1-5 μM) out of the compounds synthesized in Example 1-1, and then incubated for 4 hours. DMSO was used as a control. After 4 hours of incubation, 10 μl of WST solution was added to the cells, followed by incubation for 2 hours, and then the absorbance at 450 nm was measured by a multi-scan machine.

[3] = tested on: A549 (lung carcinoma) cells; experiment: Cell viability of solid cancer cells, WST assay, A549; type: cell-based; settings: Homo sapiens, 1-30 μM, 6 hours
Text: (§1) To investigate availability as a medicine for solid cancer, A549 cell line obtained from a -person with lung carcinoma, HeLa cell line obtained from a person with cervix adenocarcinoma, HepG2 cell line obtained from a child with hepatocellular carcinoma, MCF7 cell line obtained from a person with breast adenocarcinoma, and Beas-2B cell line obtained from normal lung for comparison with solid cancer cell line were used.
(§2) A549 (lung carcinoma), HeLa (cervix adenocarcinoma), HepG2 (hepatocellular carcinoma), MCF7 (breast adenocarcinoma), and Beas-2B (normal lung) cell lines were incubated in DMEM medium containing 10% FBS at 37 °C in a 5% CO2 incubator, and subcultured every 2 days before use in the test.
(§3) A549 (lung carcinoma), HeLa (cervix adenocarcinoma), HepG2 (hepatocellular carcinoma), MCF7 (breast adenocarcinoma), and Beas-2B (normal lung) cells were seeded at 1×10^4 cells/well in a 96-well plate, and then for cell stabilization, the cells were incubated at 37 °C in a 5% CO2 incubator for 16 hours or longer. Thereafter, the cells were treated with compounds 99, 163, 191, and 192 (1-30 μM) out of the compounds synthesized in Example 1-1, and then incubated for 6 hours. DMSO and β-lapachone were used as a control. After 4 hours of incubation, 10 μl of WST solution was added to the cells, followed by incubation for 2 hours, and then the absorbance at 450 nm was measured by a multi-scan machine. The cell viability of A549 (lung carcinoma), HeLa (cervix adenocarcinoma), HepG2 (hepatocellular carcinoma), MCF7 (breast adenocarcinoma), and Beas-2B (normal lung) cells is shown in Table 5 and FIG. 5.

[4] = tested on: HeLa (cervix adenocarcinoma) cells; experiment: Cell viability of solid cancer cells, WST assay, HeLa; type: cell-based; settings: Homo sapiens, 1-30 μM, 6 hours
Text: as §1, §2, §3

[5] = tested on: HepG2 (hepatocellular carcinoma) cells; experiment: Cell viability of solid cancer cells, WST assay, HepG2; type: cell-based; settings: Homo sapiens, 1-30 μM, 6 hours
Text: as §1, §2, §3

[6] = tested on: MCF7 (breast adenocarcinoma) cells; experiment: Cell viability of solid cancer cells, WST assay, MCF7; type: cell-based; settings: Homo sapiens, 1-30 μM, 6 hours
Text: as §1, §2, §3

| IC50 ([1]; 24 hours) | IC50 ([1]; Homo sapiens, KG-1, 24 h) | IC50 ([2]; Homo sapiens, K562, 4 h) | IC50 [3] | IC50 [4] | IC50 [5] | IC50 [6] | IC50 ([2]; 4 hours) | SMILES |
| --- | --- | --- | --- | --- | --- | --- | --- | --- |
| 0.9 µM | 0.5 to 1 µM | 2.1 µM | 6.1 µM | 4.6 µM | 14.1 µM | 13 µM | – | CC(C)c1nc2c(s1)C(=O)C(=O)c1ccccc1-2 [Compound 163] |
| – | – | 1 to 2 µM | 8.4 µM | 6.6 µM | 13.8 µM | 14.8 µM | 1.6 µM | Cn1nc2c(n1)-c1ccccc1C(=O)C2=O [Compound 191] |
| – | – | 1 to 2 µM | 5 µM | 4.4 µM | 12.2 µM | 11.7 µM | 1.2 µM | Cn1nnc2c1C(=O)C(=O)c1ccccc1-2 [Compound 192] |
